Source: article PMC6112376, “Comprehensive Analyses and Prioritization of Tox21 10K Chemicals Affecting Mitochondrial Function by in-Depth Mechanistic Studies” (Environmental Health Perspectives, 2018)
Counter-ions that a name gives are not always drawn. Like-named read-outs stand apart in the source and are kept apart here.

How the values were obtained:
HepG2 cells [1] = experiment: cells; settings: Homo sapiens; for IC50: HepG2, read-out: MMP assays IC50 (µM) HepG2; for Emax: HepG2, read-out: MMP assays efficacy (%) HepG2
rat primary hepatocytes [2] = experiment: MMP assay in rat primary hepatocytes; settings: for IC50: Rattus norvegicus, Hepatocyte, read-out: MMP assays IC50 (µM) Rat Hepatocytes
rat primary hepatocytes [3] = tested on: rat primary hepatocytes
HepG2 cells [4] = settings: cited from earlier work; for IC50: read-out: MMP assays IC50 (µM), qHTS-HepG2

Compound | IC50 (HepG2 cells [1]) | Emax (HepG2 cells [1]) | IC50 (rat primary hepatocytes [2]) | MMP assays efficacy (%) Rat Hepatocytes (rat primary hepatocytes [3]) | MMP assays efficacy (%) qHTS-HepG2 (HepG2 cells [4]) | IC50 (HepG2 cells [4]) | MMP assays IC50 (µM) Rat Hepatocytes (rat primary hepatocytes [2])
COC(=O)N(C(=O)N1CO[C@@]2(C(=O)OC)Cc3cc(Cl)ccc3C2=N1)c1ccc(OC(F)(F)F)cc1 [Indoxacarb] | 15.3 µM | 57% | 34.4 ± 5.58 µM | -88±26% | -83±20% | 12.7 ± 3.65 µM | –
O=C1C(I)=CC(=C(c2cc(I)c(O)c(I)c2)c2ccccc2C(=O)O)C=C1I [Iodophthalein] | 4.35 µM | 98% | 7.32 ± 0.6 µM | -96±3% | -95±6% | 5.31 ± 1.76 µM | –
CCC(C)(CC)c1cc(NC(=O)c2c(OC)cccc2OC)on1 [Isoxaben] | 14.1 µM | 60% | – | inactive | -80±23% | 26.3 ± 5.75 µM | inactive
Cc1cc(NC(=O)C2=C(O)c3ccccc3S(=O)(=O)N2C)no1 [Isoxicam] | 2.75 µM | 38% | 4.92 ± 0.8 µM | -60±55% | -66±27% | 5.18 ± 2.9 µM | –
O=c1c(O)c(-c2ccc(O)cc2)oc2cc(O)cc(O)c12 [Kaempferol] | 6.76 µM | 96% | 24.1 ± 8.76 µM | -84±55% | -100±8% | 2.56 ± 3.04 µM | –
O=C1C2(Cl)C3(Cl)C4(Cl)C(Cl)(Cl)C5(Cl)C3(Cl)C1(Cl)C5(Cl)C24Cl (stereo not drawn) [Kepone] | 2.82 µM | 99% | 10.2 ± 9.25 µM | -107±26% | -101±8% | 0.93 ± 0.65 µM | –
CC(=O)N1CCN(c2ccc(OCC3COC(Cn4ccnc4)(c4ccc(Cl)cc4Cl)O3)cc2)CC1 (stereo not drawn) [Ketoconazole] | 5.48 µM | 55% | – | inactive | -56±14% | 10.8 ± 3.25 µM | inactive
CC(=O)O[C@H]1C[C@H](O[C@H]2[C@@H](O)C[C@H](O[C@H]3[C@@H](O)C[C@H](OC4CC[C@@]5(C)[C@H](CC[C@@H]6[C@@H]5CC[C@]5(C)[C@@H](C7=CC(=O)OC7)CC[C@]65O)C4)O[C@@H]3C)O[C@@H]2C)O[C@H](C)[C@H]1O[C@@H]1O[C@H](CO)[C@@H](O)[C@H](O)[C@H]1O (stereo partly drawn) [Lanatoside A] | 0.14 µM | 91% | – | inactive | -69±2% | 0.43 ± 0.04 µM | inactive
CC(=O)O[C@H]1C[C@H](O[C@H]2[C@@H](O)C[C@H](O[C@H]3[C@@H](O)C[C@H](O[C@H]4CC[C@@]5(C)[C@H](CC[C@@H]6[C@@H]5C[C@@H](O)[C@]5(C)[C@@H](C7=CC(=O)OC7)CC[C@]65O)C4)O[C@@H]3C)O[C@@H]2C)O[C@H](C)[C@H]1O[C@@H]1O[C@H](CO)[C@@H](O)[C@H](O)[C@H]1O [Lanatoside C] | 0.31 µM | 92% | – | inactive | -51±10% | 0.78 ± 0.14 µM | inactive
CC(C)=CCC1=C(O)C(=O)c2ccccc2C1=O [Lapachol] | 31.6 µM | 113% | – | inactive | -117±24% | 26.1 ± 1.7 µM | inactive
O=C(NC(=O)c1c(F)cccc1F)Nc1cc(Cl)c(OC(F)(F)C(F)C(F)(F)F)cc1Cl (stereo not drawn) [Lufenuron] | 14.1 µM | 100% | 45 ± 7.29 µM | -103±8% | -119±18% | 7.65 ± 0.7 µM | –
CCN(CC)C(=O)[C@@H]1C=C2c3cccc4[nH]cc(c34)C[C@H]2N(C)C1 [Lysergide] | 17.3 µM | 48% | – | inactive | -54±2% | 9.03 ± 1.87 µM | inactive
Cc1ccccc1C(=O)Nc1cccc(OC(C)C)c1 [Mepronil] | 39.8 µM | 72% | 56.2 µM | -39±16% | -73±6% | 40.9 ± 19.2 µM | –
CS(=O)(=O)c1ccc(C(=O)C2C(=O)CCCC2=O)c([N+](=O)[O-])c1 [Mesotrione] | 39.8 µM | 72% | – | inactive | -75±17% | 18 ± 12 µM | inactive
COc1ccc(C(c2ccc(OC)cc2)C(Cl)(Cl)Cl)cc1 [Methoxychlor] | 28.2 µM | 88% | 27.7 ± 11 µM | -75±11% | -101±17% | 26.3 ± 8.69 µM | –
CO[C@H]1[C@@H](O)C[C@H](O[C@H]2[C@@H](O)C[C@H](O[C@H]3[C@@H](O)C[C@H](O[C@H]4CC[C@@]5(C)[C@H](CC[C@@H]6[C@@H]5C[C@@H](O)[C@]5(C)[C@@H](C7=CC(=O)OC7)CC[C@]65O)C4)O[C@@H]3C)O[C@@H]2C)O[C@@H]1C [Methyldigoxin] | 0.24 µM | 99% | – | inactive | -71±5% | 0.73 ± 0.09 µM | inactive
CN(C)c1ccc2nc3ccc(=[N+](C)C)cc-3sc2c1 [Methylene blue] | 2.75 µM | 89% | – | inactive | -78±9% | 2.88 ± 1.33 µM | inactive
CN(C)c1ccc(N)cc1 [N,N-Dimethyl-p-phenylenediamine] | 7.08 µM | 109% | 21.7 ± 15.7 µM | -69±29% | -100±15% | 9.1 ± 0.59 µM | –
Cc1c(O)cccc1C(=O)N[C@@H](CSc1ccccc1)[C@H](O)CN1C[C@H]2CCCC[C@H]2C[C@H]1C(=O)NC(C)(C)C [Nelfinavir mesylate] | 30.8 µM | 97% | 8.68 ± 12.2 µM | -61±48% | -120±19% | 11.9 ± 6.92 µM | –
O=C(N/N=C/c1ccc([N+](=O)[O-])o1)c1ccc(O)cc1 [Nifuroxazide] | 2.34 µM | 113% | 6.71 ± 1.54 µM | -91±23% | -89±9% | 1.57 ± 0.3 µM | –
CS(=O)(=O)Nc1ccc([N+](=O)[O-])cc1Oc1ccccc1 [Nimesulide] | 4.16 µM | 120% | 2.74 ± 0.35 µM | -117±42% | -101±6% | 3.87 ± 0.23 µM | –
CC(=O)Oc1ccccc1C(=O)Nc1ncc([N+](=O)[O-])s1 [Nitazoxanide] | 1.26 µM | 89% | 6.94 ± 4.36 µM | -94±13% | -94±10% | 1.04 ± 0.96 µM | –
COC(=O)Nc1nc2ccc(C(=O)c3cccs3)cc2[nH]1 [Nocodazole] | 2.18 µM | 87% | – | inactive | -62±6% | 3.53 ± 1.63 µM | inactive
